Test system: Human sebocytes
Assay: Neutral fat detection (Nile red staining, fluorescence intensity) in human sebocytes
Format: cell-based
Experimental: Human sebocytes (Cat. No. 36079-01, Celprogen, Torrance, Calif., USA) were cultured in Dulbecco's Modified Eagle Medium (DMEM): Nutrient Mixture F-12 (DMEM/F12) purchased from Thermo Fisher Scientific Limited (Barrington, Ill., USA), 10% fetal bovine serum (FBS) purchased from Gibco, Grand Island, N.Y., USA and penicillin/streptomycin (100 IU/50 […]), incubated at 37° C. in the 5% CO2 atmosphere.
Human sebocytes were implanted in 24- or 96-well plates. After 24 hours of culture, the cells were divided into a negative control group, a positive control group and an experimental group. […] The treated human sebocytes were cultured for two days. Human sebocytes were fixed with 4% formaldehyde at room temperature. After 60 minutes of fixation, the cells were washed with PBS and stain with Nile Red solution (1 μg/ml in PBS) at 37° C. for 15 minutes. Next, the cells were washed and observed under a fluorescent microscope. Fluorescence intensity was measured with fluorometer Spectra Max i3.

[1] = 0.1 mM LA + 50 μg/mL peptide vs LA alone, FIG. 1E

Compound | lipid content compared with the negative control group (0.1 mM LA alone vs negative control, FIG. 1E) | fluorescence intensity (lipid content of sebocytes, Nile red) (0.1 mM linoleic acid (LA) alone, positive control group, negative control about 1, FIG. 1E, cultured two days) | fluorescence intensity (lipid content of sebocytes, Nile red) (50 μg/mL peptide, negative control about 1.0, FIG. 2E) | fluorescence intensity (lipid content of sebocytes, Nile red) (100 μg/mL peptide, negative control about 1.0, FIG. 2E) | fluorescence intensity (lipid content of sebocytes, Nile red) (0.1 mM LA + 50 μg/mL lactoferrin peptide, negative control about 1, positive control (LA) about 3.44, FIG. 1E) | lipid content increase compared with the positive control group (LA) [1] | promoting and/or increasing the content of lipid synthesized by the induction of LA (significance vs positive control) [1] | fluorescence intensity (lipid content of sebocytes, Nile red) (400 μg/mL peptide (so in the source), negative control about 1.0, FIG. 2E) | concentration dependence of the lipid content increase (50, 100, 200 μg/mL peptide, FIG. 2)
CCCCC/C=C\C/C=C\CCCCCCCC(=O)O [LA, linoleic acid, reference compound] | more than 3 times | about 3.44 |  |  |  |  |  |  | 
Lf13: Lactoferrin-derived peptide purchased from DgPeptides; presumably the derived peptide comprising the amino acid sequence of SEQ ID NO: 01 (APRKNVRWCTISQ; Lactoferrin derived peptide) |  |  | about 1.29 | about 1.44 | about 4.67 | 40% | significant difference | about 1.54 | dose-dependent manner

Source: US20230002449A1, “DERIVED PEPTIDE OF LACTOFERRIN AND METHOD THEREOF FOR PROMOTING AND/OR INCREASING LIPID SYNTHESIS” (RENORIGIN INNOVATION INSTITUTE CO., LTD., priority 2021, published 2023)
